Laboratory results taken from US20090239953A1, “USE OF AN ANTI-CANCER COMPOUND” (priority 2006, published 2009).
Like-named read-outs stand apart in the source and are kept apart here.

Key:
[1] = test system: ovarian carcinoma cells (Caov-3 cells); assay: TUNEL assay apoptosis, Caov-3; format: cell-based, human; details: Caov-3, IC50 values, 24 and 48 hours, P<0.05 or P<0.01 vs control
Excerpt: Apoptotic cells were quantified manually after TUNEL Assay. Data shown are mean±SD from duplicate samples. A single dagger denotes a P of <0.05 when compared with control; a double dagger denotes a P of <0.01 when compared with control as performed by One-Way ANOVA;

serum IL-6 = assay: Serum IL-6 ELISA in mice with induced cervical cancer; format: in vivo; details: for Serum IL-6 levels vs normal saline treated mice: mice with induced cervical cancer, P<0.01 One-Way ANOVA
Procedure: All female offspring exposed to DES in uteri were pooled together and were divided into 4 groups where each group consists of 3 mice. The 5th group consists of 3 mice which was non-exposed to DES. The mice were given treatment starting from 46 days of age to 52 days of age. The treatment was given every alternate day (day 46, 48, 50, 52) which consist of 4 dosages. The treatment was given through intra peritoneal injection. The group 1 mice were treated with 0.9% of Normal Saline and this group acts as a positive control group. The group 2 mice were given 8 mg/kg of Zerumbone while the group 3 mice were given 16 mg/kg of Zerumbone. […] Finally no treatment was given to the mice in group 5 as they act as a negative control (normal mice) for the studies. Following treatment, all the mice were sacrificed at 54 days of age. The blood sample was collected through heart punctured method into a plain tube and was centrifuged at 3000 rpm for 15 minutes. The supernatant (serum) was collected into an eppendorf tube and was immediately stored in ice (0° C.—temporary storage). Once serum from all the samples was collected, the serum was stored at −20° C. Then the mice were dissected. The reproductive organ of the mice were collected and washed with 0.9% normal saline. The washed organ was soaked in 10% formalin and stored at room temperature.
The IL-6 serum levels in normal mice were used as negative control.

Caov-3 cancer cells = assay: Morphological study under normal inverted microscope, Caov-3; format: cell-based, human; details: Caov-3, treated at IC50 value, 24, 48 and 72 hours
Procedure: (§1) Treated cancer cells of HeLa and Caov-3 in 96-well plates were observed under normal inverted microscope following 24, 48 and 72 hours of incubation. Apoptotic features of treated cells were examined and compared concurrently to untreated cells. The cells were observed under inverted microscope at magnification 20×10.

HeLa cancer cells [2] = assay: Confocal microscopy with AO/PI stain, HeLa; format: cell-based, human; details: 48 hours, laser scanning confocal microscopy
Procedure: The plates were removed from the incubator after 24 and 48 hours of incubation period. The medium containing cells was transferred into labeled Eppendorf tubes (of each treated samples) placed in ice. The remaining cells in the wells were trypsinised until all cells were detached from the surfaces of each well. The medium containing cells in the Eppendorf tube was then transferred into the well of the tissue culture plate (of similar sample) to neutralise the trypsin. The medium in the wells was later transferred back into the Eppendorf tube (of similar sample) and centrifuged at 3000 rpm for 5 minutes, 4° C. Supernatant was discarded and 1 mL of 70% of cold alcohol was added. The pellet was re-suspended and placed in ice for 15 minutes for fixation. The samples were then centrifuged again at 3000 rpm for 5 minutes, 4° C. The supernatants containing the alcohol were discarded. The pellet was then re-suspended in 1 mL of phosphate buffer saline (PBS) and placed in ice for 10 minutes. The samples were centrifuged again, re-suspended in 1 mL of PBS and placed in ice for 10 minutes. This procedure was repeated again before discarding the supernatant.
The pellet containing cells was re-suspended with 15 μl of 10 μg/mL AO/PI mixture. Approximately 10 μl of the cell suspension was placed on a glass slide, and anti-fading agents were added onto the cells. […]

[3] = test system: human cervical cancer cells, HeLa; assay: Micro Tetrazolium (MTT) cytotoxicity assay on HeLa
Procedure: HeLa and Caov-3 cell lines were maintained in RPMI 1640 and DMEM high glucose respectively, supplemented with 10% FCS, 1% penicillin and 1% streptomycin. Cells were allowed to proliferate as monolayer cultures in 25 cm^2 and 75 cm^2 tissues culture flasks, in a humidified atmosphere containing 5% CO2 at 37° C.
A haemacytometer was used to determine the concentration of cells in the flask. Confluent cells were trypsinised in order to detach cells from surface of the flask. 10 mL of fresh medium was added into the flask and the cells were suspended thoroughly. 10 μl of medium from the flask was then transferred into a haemacytometer with cover slip. The counting was done under an inverted microscope and facilitated by manual counter usage. The cell density (for an example 1×10^5 cells/mL) was calculated. Using a multi-channel pipette, 100 μl of cell culture solution was transferred into each well of a 96-well microtiter plate. For a 6 well microtiter plate, 2 ml of the cell culture solution was pipetted instead. The plate was incubated overnight at 37° C. in 5% CO2.
The concentrations of zerumbone in each experiment varied according to the optimization of the experiment conducted. The controls or untreated cells received only medium without any treatment of either compounds. Treated cells were then incubated at 37° C. in 5% CO2.
This assay is based on the metabolic reduction of soluble MTT by mitochondrial enzyme activity of viable cancer cells, into an insoluble coloured formazan product, which can be measured spectrophotometrically after dissolution in dimethyl sulfoxide (DMSO) (Carmichale et al., 1987). The MTT assay was conducted according to the methods of Kumi-Diaka et at (1998) with minor modifications. The concentration of MTT solution used was 5 mg/mL. The MTT solution was prepared by dissolving 250 mg of MTT powder in 50 mL of phosphate buffer saline (PBS). A 0.2 micron syringe filter was used to filter the dissolved MTT. The filtered MTT solution was transferred into a sterile 50 mL centrifuge tube and covered with aluminum foil. This solution was stored in 4° C. and is ready to be used. The MTT assay was carried out as follows:
96-well microtiter plates containing cell culture solution were removed from the incubator after 72 hours incubation. 20 μl of 5 mg/mL MTT solution was added into each well including control wells. The plates were then wrapped with aluminium foil and incubated further for 4 hours at 37° C. in 5% CO2. After incubation, excess MTT reagent was aspirated and 100 μl of DMSO was added to dissolve the remaining purple colour formazan crystals. The plates were gently mixed on a plate shaker for approximately 4 minutes. The absorbance of the formazan solution was determined at 450 nm using a microplate reader.

HeLa cancer cells [4] = assay: Morphological study under normal inverted microscope, HeLa; format: cell-based, human; details: treated at IC50 value, 24, 48 and 72 hours
Procedure: as §1

[5] = test system: cervical cancer cells (HeLa cells); assay: TUNEL assay apoptosis, HeLa; format: cell-based, human; details: IC50 values, 24 and 48 hours, P<0.01 vs control
Excerpt: Apoptosis was quantified manually after TUNEL Assay. Data shown are mean±SD from duplicate samples. A double dagger denotes a P of <0.01 when compared with control as performed by One-Way ANOVA;

[6] = test system: induced cervical cancer in female balb/c mice; assay: DES-induced cervical cancer in female balb/c mice, cervical histology (H&E); format: in vivo; details: intra peritoneal, 4 dosages on alternate days, normal saline group CIN III
Procedure: 1 male mouse was cohabitate with 3 female mice for 48 hours prior to experiment to stimulate the ovulation of the female mice. After 48 hours, 1 male mouse was cohabitate with 1 female mouse. The next morning, the female mice were checked for a vaginal plug. The detection of vaginal plug at the vagina of the female mice were considered as the first day of pregnancy and gestation day (G=0). Once the female mouse was pregnant the corresponding male mouse was separated from the cage. Only one pregnant female mouse was placed in each cage to reduce the stress among the mice and also to reduce the chances of cannibalization of offspring by the mothers. The pregnant mice were given subcutaneous injection of 67 μg/kg body weight diethylstilbestrol (DES) dissolved in sesame oil (refer to appendix for DES preparation) from gestation day (13 to 18). Since the reproductive tract is developing during this time, so giving the DES injection too early may cause stillbirth. The mice gave birth approximately at gestation day (19 to 22). The offspring were weaned at 22 days of age. 1 female offspring was subjected for the confirmation of cervical dysplasia at 41 days of age. The other offspring were subjected for the treatment with cisplatin, zerumbone and normal saline.
All female offspring exposed to DES in uteri were pooled together and were divided into 4 groups where each group consists of 3 mice. […]

HeLa cells = assay: Cell cycle study by flow cytometry, HeLa; format: cell-based, human; details: 24 hours, zerumbone 0 to 45 μM
Procedure: Cells were plated in 25 cm^2 tissue culture flasks at concentrations of 0.5×10^5 cells/mL. After an overnight incubation, the cells were cultured in the presence of zerumbone at concentrations as indicated above for 24 hours. Cells were harvested using trypsin-EDTA before centrifuging at 3000 rpm for 5 minutes. The cells pellet was then re-suspended in 2 mL of phosphate buffer saline (PBS). The re-suspended cells were centrifuged at 3000 rpm for 5 minutes and the resulting cells pellet was re-suspended again in 1 mL of cold PBS. The cells were fixed by the addition of 4 mL of cold absolute ethanol (kept in −20° C. prior to use). The fixed cells were stored in −20° C. overnight before resuming the staining procedure.

Coa3 cancer cells = assay: Cell cycle study by flow cytometry, Caov-3; format: cell-based, human; details: Coa3 (Caov-3) cancer cells

Structure (SMILES)	Apoptosis, apoptotic cells quantified after TUNEL Assay [1]	Serum IL-6 levels vs normal mice (negative control) (serum IL-6; 10 mg/kg cisplatin)	Serum IL-6 levels vs normal saline treated mice (serum IL-6)	Morphological changes / cell growth vs untreated control (Caov-3 cancer cells)	Morphological changes after AO/PI staining (HeLa cancer cells [2])	IC50 value, growth proliferation of HeLa ([3]; MTT, 72-hours post-treatment)	IC50 ([3]; read-out: IC50 value (±S.E.M), growth proliferation of HeLa, MTT, 72-hours post-treatment)	Morphological changes / cell growth vs untreated control (HeLa cancer cells [4])	Apoptosis quantified after TUNEL Assay [5]	Cervical tissue dysplasia grade (CIN) ([6]; 10 mg/kg cisplatin)	Serum IL-6 levels vs normal mice (negative control) (serum IL-6; 16 mg/kg zerumbone)	Cell cycle progression (G2/M, G1, S phase) (HeLa cells)	Cell cycle progression (G2/M, G1, S phase) (Coa3 cancer cells)	IC50 ([3]; Homo sapiens, 72 h, read-out: IC50 value (±S.E.M), growth proliferation of HeLa)	IC50 ([3]; Homo sapiens, 72 h, read-out: IC50 value, growth proliferation of HeLa)	Cervical tissue dysplasia grade (CIN) ([6]; 16 mg/kg zerumbone)
N.N.[Cl][Pt][Cl] [cisplatin, reference compound]	induced apoptosis	almost near to the serum level of normal mice	lower	Prominent growth retardation	blebbing of the cell membrane, nuclear condensation with margination and nuclear damage	1.6 µg/mL	7.5 µM	Prominent growth retardation	induced apoptosis	mild dysplastic changes (CIN I)	–	–	–	–	–	–
C/C1=C\CC(C)(C)/C=C/C(=O)/C(C)=C/CC1 [zerumbone]	induced apoptosis	–	lower	Prominent growth retardation	blebbing of the cell membrane, nuclear condensation with margination and nuclear damage	–	–	Prominent growth retardation	induced apoptosis	–	almost near to the serum level of normal mice	increase in the number of HeLa cancer cells and Coa3 cancer cells in the G2/M phase and a decrease in the G1 phase and S phase	increase in the number of HeLa cancer cells and Coa3 cancer cells in the G2/M phase and a decrease in the G1 phase and S phase	11.3 µM	2.5 µg/mL	mild dysplastic changes (CIN I)
